The target in the assay is T1, human TPO receptor (Homo sapiens, UniProt P40238).
T1 construct: expressed in transfected cells
T1 sequence (P40238 26-635): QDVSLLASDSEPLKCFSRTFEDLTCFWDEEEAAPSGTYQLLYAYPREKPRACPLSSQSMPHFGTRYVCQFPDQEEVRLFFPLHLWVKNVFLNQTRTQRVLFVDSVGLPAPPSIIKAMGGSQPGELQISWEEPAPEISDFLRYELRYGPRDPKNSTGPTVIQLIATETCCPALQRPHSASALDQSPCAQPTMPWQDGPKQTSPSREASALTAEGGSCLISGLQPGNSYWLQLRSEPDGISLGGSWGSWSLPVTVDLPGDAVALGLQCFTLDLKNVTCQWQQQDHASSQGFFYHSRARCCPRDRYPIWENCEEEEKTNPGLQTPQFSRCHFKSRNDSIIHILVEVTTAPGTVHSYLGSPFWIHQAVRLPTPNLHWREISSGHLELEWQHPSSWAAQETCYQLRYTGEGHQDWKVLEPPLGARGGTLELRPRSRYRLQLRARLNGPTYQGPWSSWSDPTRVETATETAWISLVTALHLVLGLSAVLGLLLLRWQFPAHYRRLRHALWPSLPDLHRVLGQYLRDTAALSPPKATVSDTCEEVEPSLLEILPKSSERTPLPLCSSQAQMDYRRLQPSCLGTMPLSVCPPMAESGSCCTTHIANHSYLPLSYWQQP
The experiment in a line: Proliferation of TPO-dependent cell line UT7/EPO-mpl, WST-8 reagent (Assay Example 5). The note with it: WST-8, 4 days; for Efficacy (%) (maximal growth rate): growth with 10 ng/ml TPO = 100%. It counts as cell-based. As for the experimental part:
Human leukemic cell line UT7/EPO-mpl was washed twice with PBS and suspended in IMDM containing 10% FBS at a cell density of 6×10^4 cells/ml. The cell suspension was transferred to a 96-well tissue culture plate (CORNING) in 100-μl aliquots. Then either TPO or the following Synthetic Examples, each dissolved in DMSO, were diluted 83-fold with IMDM containing 10% FBS and added to the aforementioned cell suspension in 20-μl aliquots. The suspension was incubated in a CO2 incubator (5% CO2, 37° C.) for 4 days. Cell proliferation was assayed using WST-8 reagent (Kishida Chemical, Co. Ltd.) according to instructions by the manufacturer. A 10-μl aliquot of 5 mM WST-8 reagent solution was added to each well of the tissue culture plate and the plate was incubated at 37° C. for 4 h. The formazan pigment generated was detected by measuring the absorbance at 450 nm with a 96-well microplate reader (Nihon Molecular Devices, SpectraMax 190). The concentration of each compound that yields a growth rate corresponding to 50% of the growth of human leukemic cell line UT7/EPO-mpl observed in the presence of 10 ng/ml TPO (EC50T) and the maximal growth rate achieved by the same compound (efficacy), expressed by taking the value with human leukemic cell line UT7/EPO-mpl in the presence of 10 ng/ml TPO as 100% standard, are summarized in Table 9.

As to `CC(NNC(=O)c1ccc(O)cc1O)=C1C(=O)N(c2ccc(C)c(C)c2)N=C1C(F)(F)F` [compound 94], the “EC50T (concentration yielding 50% of the growth observed with 10 ng/ml TPO)” value turned out to be 0.0033 µg/mL and the “Efficacy (%) (maximal growth rate)” value is listed as 95%.

Consider `CC1=NN(c2ccc(C(C)(C)C)cc2)C(=O)C1=C(C)NNC(=O)c1ccc(C(=O)O)s1` [compound 99], for which the “EC50T (concentration yielding 50% of the growth observed with 10 ng/ml TPO)” value is 0.0039 µg/mL and the “Efficacy (%) (maximal growth rate)” value worked out at 110%.

`COC(=O)c1ccc(C(=O)NNC(C)=C2C(=O)N(c3ccc(C(C)(C)C)cc3)N=C2C)s1` [compound 98]: the “EC50T (concentration yielding 50% of the growth observed with 10 ng/ml TPO)” value was 0.031 µg/mL and the “Efficacy (%) (maximal growth rate)” value is on record as 96%.

For the compound `CC(NNC(=O)c1ccc(C(=O)O)cc1)=C1C(=O)N(c2ccc(C)c(C)c2)N=C1C(F)(F)F` [compound 96], the “EC50T (concentration yielding 50% of the growth observed with 10 ng/ml TPO)” value was 0.0033 µg/mL and the “Efficacy (%) (maximal growth rate)” value was 93%.

For the compound `CC1=NN(c2ccc3ccccc3n2)C(=O)C1=C(C)NNC(=O)c1ccc(C(=O)O)cc1` [compound 100], the “EC50T (concentration yielding 50% of the growth observed with 10 ng/ml TPO)” value is 0.059 µg/mL and the “Efficacy (%) (maximal growth rate)” value came to 107%.

As to `COC(=O)c1ccc(C(=O)NNC(C)=C2C(=O)N(c3ccc(C)c(C)c3)N=C2C(F)(F)F)cc1` [compound 95], the “EC50T (concentration yielding 50% of the growth observed with 10 ng/ml TPO)” value stood at 0.052 µg/mL and the “Efficacy (%) (maximal growth rate)” value came out at 71%.

Regarding `COC(=O)c1ccc(C(=O)NNC(C)=C2C(=O)N(c3ccc(Cl)nn3)N=C2C)cc1` [compound 101], the “EC50T (concentration yielding 50% of the growth observed with 10 ng/ml TPO)” value was 0.018 µg/mL and the “Efficacy (%) (maximal growth rate)” value amounted to 100%.

Consider `CC1=NN(c2ccc(C(C)(C)C)cc2)C(=O)C1=C(C)NNC(=O)c1ccc(-c2nnn[nH]2)cc1` [compound 103], for which the “Efficacy (%) (maximal growth rate)” value was 90%. In addition, the EC50 (read-out: EC50T (concentration yielding 50% of the growth observed with 10 ng/ml TPO) (converted)) was 10.5 nM.

As for `CC1=NN(c2ccc(C(C)(C)C)cc2)C(=O)C1=CNNC(=O)c1ccc(C(=O)O)cc1` [compound 97], the “EC50T (concentration yielding 50% of the growth observed with 10 ng/ml TPO)” value is 0.025 µg/mL and the “Efficacy (%) (maximal growth rate)” value stood at 94%.

Values taken from US8053453B2, “Pyrazolone compounds and thrombopoietin receptor activator” (Nissan Chemical Industries, Ltd., priority 2002, dated 2011).
